The record followed here is patent US8629116B2, “Method for inducing a TRIF-bias” (priority 2008, dated 2014).

One assay has as its system THP-1 cells. The assay is described as follows: Cytokine induction with dominant negative MyD88 or TRIF constructs in THP-1 macrophages. The format is cell-based, human. To be noted: for induction of TRIF-dependent cytokines when TRIF is knocked down: dominant negative TRIF construct.
For the next assay, the system named is MonoMac6 (MM6) cells. The assay is described as follows: NFκB nuclear translocation in MonoMac6 cells (ImageStream). The format is cell-based, human. The text has this: MonoMac6 Cells in exponential growth are stimulated with increasing concentrations of AGP diluted in 2% glycerol vehicle for the indicated time points. Immediately fixed cells (in 2% paraformalin overnight) are stained with the primary antibodies, anti-NFκB(p65) (SantaCruz Biotechnology, SantaCruz, Calif.) and anti-IRF3 (BD Biosciences, San Jose, Calif.), in permeabilization buffer (PBS, 2% FBS, 0.1% TritonX) followed by secondary antibodies, anti-Rabbit FITC (Jackson Labs, Bar Harbor, Me.), anti-mouse PE (BD Biosciences, San Jose, Calif.). Similarity scores of signaling protein localization with the nuclear stain DRAQ5 (Alexis Biochemicals (San Diego, Calif.) are used for ImageStream analysis of Nuclear Translocation as previously described {George, 2006 32669/id}. A minimum of 3000 cells are collected and analyzed for each condition tested.
Interferon […] Factor-3 (IRF-3) is a transcription factor activated downstream of the TRIF-dependent TLR4 signaling pathway (Yamamoto et al. 640-43). IRF-3 phosphorylation leads to IRF-3 dimerization, nuclear translocation, and induction of transcription of Type I interferon (IFNβ) and interferon-inducible genes (Honda, Takaoka, and Taniguchi 349-60; Tailor, Tamura, and Ozato 134-40). The ImageStream is capable of measuring nuclear translocation of both NFκB and IRF-3 by quantification of co-localization between the labeled transcription factors and the nucleus of cells stained with a nucleus-specific dye ([…]) (Beum et al. 90-99; George et al. 117-29; Arechiga et al. 7800-04).
In order to compare signaling initiated by CRX-527 and CRX-547, the induction of nuclear translocation of NFκB and IRF-3 by CRX-527 and CRX-547 treatment is compared in the human monocytic cell line, MonoMac6 (MM6) using ImageStream analysis.
To determine whether CRX-547 is able to antagonize NFκB nuclear translocation in cells treated with constant CRX-527, MM6 cells are stimulated for 20 minutes, 35 minutes and 2 hrs with increasing doses of CRX-547 (FIG. 12). When AGPs are added at the same time, CRX-547 antagonized NFκB nuclear translocation induced by CRX-527 at the highest doses. When CRX-547 is constant and spiked with CRX-527 into the assay, CRX-527 stimulation is able to overcome the maximal effect of NFκB nuclear translocation with CRX-547 alone.

Another assay has as its target T1, human TLR4, MD-2, CD14 (Homo sapiens, UniProt O00206+Q9Y6Y9).
T1 construct: host or cells: HEK293-hTLR4/hMD2/hCD14
The assay is described as follows: NF-κB reporter activity in HEK293 cells transfected with human TLR4/MD-2/CD14. The format is cell-based. Particulars: HEK293 huTLR4/huMD-2/huCD14, NFκB reporter plasmid.

In another assay the test system is PBMCs from BALB/c mice. The assay is described as follows: Cytokine induction in PBMCs from BALB/c mice. The format is cell-based, mouse. To be noted: CRX-527 versus CRX-547; experiment performed once. As to the method: To determine whether PBMCs from mouse blood have similar profiles of MyD88 cytokines after CRX-527 or CRX-547 treatment, commercially available blood from BALB/c mice is tested with CRX-527 or CRX-547. (FIG. 24), Levels appear to be similar between the two groups tested.

Assay [1] deals with RAW264.7 (macrophage) cells. The assay is described as follows: TNFα and IP-10 production in RAW264.7 cells. It is filed as cell-based, mouse. The text has this:
To better compare and confirm the similarity of potency between the L and D isomers in murine cells, RAW264.7 (macrophage) cells are stimulated over a wider dose range with CRX-527, CRX-547, compounds 1a and 1b and the supernatants assayed for MyD88 (TNFα) and TRIF-dependent (IP-10) production.
Since MyD88-dependent signaling after TLR4 stimulation should be earlier than TRIF dependent signaling, and because both MyD88 and TRIF can induce downstream TNFα production due to activation of the NFκB pathway, an earlier timepoint is tested for cytokine production after stimulation with the L and D isomers.

The next assay relates to RAW264.7 cells. The assay is described as follows: Western blot of signaling proteins in RAW264.7 cells. Particulars: 10 ng/ml, PMA pre-activated. It is filed as cell-based, mouse. As to the method: For Western blot and phospho-Western blot protein analysis, cells are lysed with Cell Lysis Buffer (Cell Signaling Technology, Danvers, Mass.) with Protease Inhibitor Cocktail (Sigma, St. Louis Mo.). Western Blot on PVDF membranes (Millipore) is performed using standard methods. Bands are detected with ECL Advance Western Blot kit (GE Healthcare, Piscataway, N.J.). Secondary Anti-Rabbit HRP antibody is obtainable from KPL, (Gaithersburg, Md.). Anti-βactin, anti-IRF-3, anti-phospho-IRF-3 (Ser396) and anti-IRAK1 antibodies are obtained from Cell Signaling Technology (Danvers, Mass.).
To determine whether the phosphorylation (activation) status of key protein signaling molecules in the TRIF versus MyD88 in RAW264.7 cells, cells are pre-activated with 10^−7M PMA) then stimulated with 10 ng/ml of the AGPs. Cellular lysates are prepared at 0, 15 m, 30 m, 45 m, 60 m, 120 m, 240 m, Similar to results in MM6 cells, IκBα degradation is faster after stimulation with CRX-527 compared to CRX-547 (FIG. 29). […] The increased reponsiveness of these cello could be due to the pre-activation with PMA, known to increase the maturation state of monocytic cells. CRX-547 induces expression of Phospho-IκBα and Phospho-IRF3. IRF3 is induced through TRIF mediated signaling. The amount of total IRF3 protein is also higher in the cells treated with CRX-547.

Setting [2] is: dominant negative MyD88 construct.

T1 sequence (O00206 24-839): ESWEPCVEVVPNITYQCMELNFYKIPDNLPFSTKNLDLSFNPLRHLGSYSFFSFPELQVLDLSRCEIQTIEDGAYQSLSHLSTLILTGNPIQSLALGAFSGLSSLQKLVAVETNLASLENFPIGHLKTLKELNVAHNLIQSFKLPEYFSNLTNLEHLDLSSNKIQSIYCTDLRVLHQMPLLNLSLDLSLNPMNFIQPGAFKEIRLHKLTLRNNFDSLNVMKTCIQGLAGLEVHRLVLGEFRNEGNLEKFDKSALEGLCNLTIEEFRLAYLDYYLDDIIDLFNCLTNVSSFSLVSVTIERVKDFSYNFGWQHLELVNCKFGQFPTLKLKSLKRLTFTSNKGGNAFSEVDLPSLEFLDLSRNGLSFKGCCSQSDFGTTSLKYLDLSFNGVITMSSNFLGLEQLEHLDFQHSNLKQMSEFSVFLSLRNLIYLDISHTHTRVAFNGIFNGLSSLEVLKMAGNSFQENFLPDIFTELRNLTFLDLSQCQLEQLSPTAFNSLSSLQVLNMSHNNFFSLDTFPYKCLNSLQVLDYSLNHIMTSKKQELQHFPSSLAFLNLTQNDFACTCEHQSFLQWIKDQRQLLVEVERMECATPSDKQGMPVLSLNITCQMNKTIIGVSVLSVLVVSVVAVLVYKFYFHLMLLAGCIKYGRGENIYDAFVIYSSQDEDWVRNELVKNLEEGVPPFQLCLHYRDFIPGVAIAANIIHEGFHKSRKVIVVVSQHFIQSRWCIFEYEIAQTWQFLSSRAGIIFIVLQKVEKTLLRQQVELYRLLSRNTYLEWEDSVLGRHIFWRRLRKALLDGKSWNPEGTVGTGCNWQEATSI
T1 sequence (Q9Y6Y9 19-160): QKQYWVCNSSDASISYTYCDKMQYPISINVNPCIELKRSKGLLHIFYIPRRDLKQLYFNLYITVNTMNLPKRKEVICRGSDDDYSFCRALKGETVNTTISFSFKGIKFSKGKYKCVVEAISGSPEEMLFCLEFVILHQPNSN
Procedure for THP-1 cells: THP-1 cells are seeded in 12-well plates (5×10^5 cells/well) and incubated in 0.5 mL RPMI 1640 (ATCC) with 100 U/mL penicillin/100 ug/mL streptomycin (Sigma) with 20 ng/mL phorbol mystyric acid (PMA) (InvivoGen) for differentiation into macrophages. After differentiation of the THP-1, the media is changed to THP-1 media with 5 ng/mL PMA and the cells are transiently transfected with 0.5 μg/well of the pDeNy-hMyD88/LacZ, pDeNy-TRIF/LacZ, or pUNO-mcs (control)/LacZ plasmids and Fugene 6 transfection reagent for 48 h. Media is exchanged for fresh media and the cells are then stimulated with the indicated concentrations of TLR4 agonists for 14 hours. Harvested supernatants are assayed for cytokine levels by multiplex sandwich ELISA (R&D Systems) with the luminex platform. Control wells are assayed for transfection efficiency using the Invivogen LacZ Quantitation Kit.
Procedure for human TLR4, MD-2, CD14: HEK293-hTLR4/hMD2/hCD14 cells are seeded in 12-well plates (4×10^5 cells/well) and are cultured until 40-60% confluent (2-3 days). The cells are transfected for 24 hours with 100 ng of NF-κB reporter construct expressing secreted human embryonic alkaline phosphatase under the control of an engineered ELAM promoter with five NF-κB sites (pNiFty2-SEA-InvivoGen; San Diego, Calif.) and a transfection control plasmid constitutively expressing a thymidine kinase promoter driven luciferase (Promega). […] After transfection, cells are stimulated for 14 h with TLR4 agonists, and the cleared supernatant is assayed for SEAP activity (SEAP Reporter Assay Kit-InvivoGen) to quantify NF-κB activation and luciferase activity (Promega) to normalize for transfection efficiency following supplied protocols.

On to `CCCCCCCCCCCC(CC(=O)NC(COC1OC(CO)C(OP(=O)(O)O)C(OC(=O)CC(CCCCCCCCCCC)OC(=O)CCCCCCCCC)C1NC(=O)CC(CCCCCCCCCCC)OC(=O)CCCCCCCCC)C(=O)O)OC(=O)CCCCCCCCC.CCN(CC)CC` (centres unmarked) [CRX-527], for which, in the assay with THP-1 cells (setting [2]), the “induction of MyD88-dependent cytokine (TNFα) when MyD88 signaling is inhibited” value is listed as “significantly reduced” and the “induction of TRIF-dependent cytokine RANTES when MyD88 signaling is inhibited” value was “only slightly reduced”. Moreover, in the assay with THP-1 cells, the “induction of TRIF-dependent cytokines when TRIF is knocked down” value is given as “reduced to a similar extent”. For the same molecule, the “earliest NFκB nuclear translocation post-stimulation” value with MonoMac6 (MM6) cells (MM6 cells) is at most 5 min. The molecule also gave an NFκB nuclear translocation in the assay on MonoMac6 (MM6) cells (MM6 cells, by thirty minutes) of about 100%. Also, at human TLR4, MD-2, CD14, the NF-κB promoter/reporter activation result is reported as “significantly higher activation”. Besides, the MyD88 cytokine levels entry with PBMCs from BALB/c mice is reported as “similar”. Moreover, in assay [1] (four hours of stimulation), the “potency for IP-10 production” value was “slightly more potent” and the “potency for TNFα production” value was “slightly more potent”. Further, in assay [1] (wider dose range), the “potency for IP-10 production” value is on record as “more potent” and the “potency for TNFα production” value is recorded as “more potent”. Also, the IκBα degradation entry in the assay with RAW264.7 cells (CRX-527 compared to CRX-547) is “faster”.
Take `CCCCCCCCCCCC(CC(=O)NC(COC1OC(CO)C(OP(=O)(O)O)C(OC(=O)CC(CCCCCCCCCCC)OC(=O)CCCCCCCCC)C1NC(=O)CC(CCCCCCCCCCC)OC(=O)CCCCCCCCC)C(=O)O)OC(=O)CCCCCCCCC.CCN(CC)CC` (centres unmarked) [CRX-547]: in the assay with THP-1 cells (setting [2]), the “induction of MyD88-dependent cytokine (TNFα) when MyD88 signaling is inhibited” value is given as “unaffected”. Besides, the “induction of TRIF-dependent cytokines when TRIF is knocked down” value in the assay on THP-1 cells is recorded as “reduced to a similar extent”. In addition, in the assay with MonoMac6 (MM6) cells (MM6, AGPs added at the same time, highest doses of CRX-547), the “effect on NFκB nuclear translocation induced by CRX-527” value is “antagonized”. The “NFκB nuclear translocation, threshold never exceeded” value in the assay with MonoMac6 (MM6) cells (MM6 cells, 5-120 minutes) is “around 50%”. Besides, the NF-κB promoter/reporter activation result at human TLR4, MD-2, CD14 is “less NFκB reporter activity”. For the same molecule, in the assay on PBMCs from BALB/c mice, the MyD88 cytokine levels entry was “similar”. In assay [1] (wider dose range), the “potency for IP-10 production” value is listed as “less potent” and the “potency for TNFα production” value was “less potent”. Moreover, in the assay with RAW264.7 cells (performed once), the IRF3 phosphorylation result was “higher degree”, the IκBα phosphorylation result is “higher degree” and the “amount of total IRF3 protein” value is on record as “higher”.
